Data as given in PubChem BioAssay (NCI).
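Interpolation was linear, between the two tested concentrations surrounding the appropriate level; five concentrations were tested over 48 hours in 96-well plates. GI50 is the concentration that inhibits growth by half. TGI: concentration producing complete growth inhibition.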

Key:
Assay in all cases: NCI-60 cell line screen, 48 h
[1] = tested on: M14 melanoma
[2] = tested on: MDA-MB-435
[3] = tested on: MALME-3M melanoma
[4] = tested on: NCI/ADR-RES ovarian
[5] = tested on: SK-MEL-5 melanoma
[6] = tested on: ACHN renal
[7] = tested on: HCC-2998 colon
[8] = tested on: OVCAR-3 ovarian
[9] = tested on: SF-295 CNS
[10] = tested on: SF-539 CNS
[11] = tested on: SR leukemia
[12] = tested on: U251 CNS
[13] = tested on: EKVX NSCLC
[14] = tested on: NCI-H23 lung
[15] = tested on: MDA-MB-231 breast
[16] = tested on: COLO 205 colon
[17] = tested on: 786-0 renal
[18] = tested on: HOP-62 NSCLC
[19] = tested on: NCI-H522 lung
[20] = tested on: SF-268 CNS
[21] = tested on: HOP-92 NSCLC
[22] = tested on: KM12 colon
[23] = tested on: HL-60(TB) leukemia
[24] = tested on: DU-145 prostate
[25] = tested on: RXF 393 renal
[26] = tested on: CCRF-CEM leukemia
[27] = tested on: HCT-15 colon
[28] = tested on: SK-MEL-2 melanoma
[29] = tested on: UACC-257 melanoma
[30] = tested on: SK-MEL-28 melanoma
[31] = tested on: TK-10 renal
[32] = tested on: A549 NSCLC
[33] = tested on: NCI-H460 lung
[34] = tested on: UACC-62 melanoma
[35] = tested on: NCI-H226 lung
[36] = tested on: LOX IMVI melanoma
[37] = tested on: T-47D breast
[38] = tested on: HS 578T breast
[39] = tested on: SW-620 colon
[40] = tested on: A498 renal
[41] = tested on: MCF7 breast
[42] = tested on: SNB-19 CNS
[43] = tested on: OVCAR-4 ovarian
[44] = tested on: CAKI-1 renal
[45] = tested on: HT29 colon
[46] = tested on: RPMI-8226 leukemia
[47] = tested on: HCT-116 colon
[48] = tested on: SNB-75 CNS
[49] = tested on: PC-3 prostate
[50] = tested on: IGROV1 ovarian
[51] = tested on: OVCAR-5 ovarian
[52] = tested on: BT-549 breast
[53] = tested on: MOLT-4 leukemia
[54] = tested on: K-562 leukemia
[55] = tested on: SN12C renal
[56] = tested on: OVCAR-8 ovarian
[57] = tested on: UO-31 renal
[58] = tested on: SK-OV-3 ovarian

For `Nc1cccc(CCN2CCN(CCCc3ccccc3)CC2)c1`, the TGI [1] was 32.3 µM, the TGI [2] was 36.9 µM and the TGI [3] was 38 µM. It also gave a TGI [4] greater than 100 µM, a TGI [5] of 34.3 µM and a TGI [6] greater than 100 µM. It also gave a TGI [7] of 28.2 µM, a TGI [8] of 41.2 µM and a TGI [9] of 70 µM. It also gave a TGI [10] of 40.6 µM, a TGI [11] of 65.9 µM and a TGI [12] greater than 100 µM. It also gave a TGI [13] greater than 100 µM, a TGI [14] greater than 100 µM and a TGI [15] greater than 100 µM. For the same compound, the TGI [16] was 34.8 µM, the TGI [17] was 37.4 µM and the TGI [18] was greater than 100 µM. It also gave a TGI [19] of 30.1 µM, a TGI [20] greater than 100 µM and a TGI [21] of 53.8 µM. It also gave a TGI [22] of 81.5 µM, a TGI [23] greater than 100 µM and a TGI [24] greater than 100 µM. For the same compound, the TGI [25] was 52.2 µM, the TGI [26] was greater than 100 µM and the TGI [27] was 38.2 µM. The TGI [28] was greater than 100 µM, the TGI [29] was 65.3 µM and the TGI [30] was 88.4 µM. For the same compound, the TGI [31] was greater than 100 µM, the TGI [32] was greater than 100 µM and the TGI [33] was 71.4 µM. It also gave a TGI [34] of 52.7 µM, a TGI [35] greater than 100 µM and a TGI [36] of 33.1 µM. The TGI [37] was 52.6 µM, the TGI [38] was greater than 100 µM and the TGI [39] was greater than 100 µM. The TGI [40] was greater than 100 µM, the TGI [41] was 36.4 µM and the TGI [42] was greater than 100 µM. The TGI [43] was greater than 100 µM, the TGI [44] was greater than 100 µM and the TGI [45] was 46.5 µM. The TGI [46] was greater than 100 µM, the TGI [47] was 36.7 µM and the TGI [48] was greater than 100 µM. For the same compound, the TGI [49] was greater than 100 µM, the TGI [50] was greater than 100 µM and the TGI [51] was greater than 100 µM. For the same compound, the TGI [52] was greater than 100 µM, the TGI [53] was greater than 100 µM and the TGI [54] was greater than 100 µM. For the same compound, the TGI [55] was greater than 100 µM, the TGI [56] was 63.2 µM and the TGI [57] was greater than 100 µM. It also gave a TGI [58] greater than 100 µM.

With `N[C@H]1C[C@@H]1c1ccc(-c2cccc(O)c2)cc1` the GI50 [1] was 15.7 µM, the TGI [1] was 36.3 µM and the GI50 [2] was 22.6 µM. The TGI [2] was 61.6 µM, the GI50 [3] was 14.2 µM and the TGI [3] was 44.9 µM. For the same compound, the GI50 [4] was 36.8 µM, the TGI [4] was greater than 100 µM and the GI50 [5] was 15.5 µM. For the same compound, the TGI [5] was 30.2 µM, the GI50 [6] was 23.2 µM and the TGI [6] was 93.3 µM. The GI50 [7] was 20 µM, the TGI [7] was 67.2 µM and the GI50 [8] was 38.9 µM. It also gave a TGI [8] greater than 100 µM, a GI50 [9] of 28.1 µM and a TGI [9] greater than 100 µM. It also gave a GI50 [10] of 24.2 µM, a TGI [10] of 98.4 µM and a GI50 [11] of 24.7 µM. The TGI [11] was 65.2 µM, the GI50 [12] was 34.7 µM and the TGI [12] was greater than 100 µM. It also gave a GI50 [13] of 27.2 µM, a TGI [13] greater than 100 µM and a GI50 [14] of 37.6 µM. The TGI [14] was greater than 100 µM, the GI50 [15] was 17.6 µM and the TGI [15] was 44 µM. It also gave a GI50 [16] of 29.2 µM, a TGI [16] greater than 100 µM and a GI50 [17] of 29.6 µM. For the same compound, the TGI [17] was greater than 100 µM, the GI50 [18] was 28.3 µM and the TGI [18] was greater than 100 µM. The GI50 [19] was 15 µM, the TGI [19] was 35.1 µM and the GI50 [20] was 27.5 µM. The TGI [20] was greater than 100 µM, the GI50 [21] was 11.9 µM and the TGI [21] was 72 µM. The GI50 [22] was 29.2 µM, the TGI [22] was 93.4 µM and the GI50 [23] was 17.6 µM. It also gave a TGI [23] of 44.9 µM, a GI50 [24] of 42.2 µM and a TGI [24] greater than 100 µM. It also gave a GI50 [25] of 17.1 µM, a TGI [25] greater than 100 µM and a GI50 [26] of 29.3 µM. The TGI [26] was greater than 100 µM, the GI50 [27] was 26.7 µM and the TGI [27] was greater than 100 µM. For the same compound, the GI50 [28] was 19 µM, the TGI [28] was 52.6 µM and the GI50 [29] was 23.4 µM. For the same compound, the TGI [29] was 63.8 µM, the GI50 [30] was 24.3 µM and the TGI [30] was 69.2 µM. For the same compound, the GI50 [31] was 31.1 µM, the TGI [31] was greater than 100 µM and the GI50 [32] was 50.6 µM. It also gave a TGI [32] greater than 100 µM, a GI50 [33] of 45.9 µM and a TGI [33] greater than 100 µM. It also gave a GI50 [34] of 15.9 µM, a TGI [34] of 35 µM and a GI50 [35] greater than 100 µM. For the same compound, the TGI [35] was greater than 100 µM, the GI50 [36] was 14.8 µM and the TGI [36] was 29.7 µM. The GI50 [37] was 23 µM, the TGI [37] was greater than 100 µM and the GI50 [38] was 22.8 µM. It also gave a TGI [38] greater than 100 µM, a GI50 [39] of 32.1 µM and a TGI [39] greater than 100 µM. The GI50 [40] was 14.8 µM, the TGI [40] was 69.6 µM and the GI50 [41] was 22.9 µM. The TGI [41] was greater than 100 µM, the GI50 [42] was 53.8 µM and the TGI [42] was greater than 100 µM. For the same compound, the GI50 [43] was 28.9 µM, the TGI [43] was greater than 100 µM and the GI50 [44] was 22.4 µM. It also gave a TGI [44] of 82.9 µM, a GI50 [45] of 34.7 µM and a TGI [45] greater than 100 µM. The GI50 [46] was 19 µM, the TGI [46] was 63 µM and the GI50 [47] was 25 µM. It also gave a TGI [47] greater than 100 µM, a GI50 [48] of 11.7 µM and a TGI [48] of 49 µM. It also gave a GI50 [49] of 26.4 µM, a TGI [49] greater than 100 µM and a GI50 [50] of 30.8 µM. The TGI [50] was greater than 100 µM, the GI50 [51] was 37.5 µM and the TGI [51] was greater than 100 µM. The GI50 [52] was 22.4 µM, the TGI [52] was greater than 100 µM and the GI50 [53] was 22.3 µM. For the same compound, the TGI [53] was 74.5 µM, the GI50 [54] was 21 µM and the TGI [54] was 76.1 µM. It also gave a GI50 [55] of 34.5 µM, a TGI [55] greater than 100 µM and a GI50 [56] of 34 µM. It also gave a TGI [56] greater than 100 µM, a GI50 [57] of 17.7 µM and a TGI [57] of 82.4 µM. It also gave a GI50 [58] of 25.1 µM and a TGI [58] greater than 100 µM.
